For 17 molecules, IC50 results are on record in patent publication US12227501B2, “3-amino-2-[2-(acylamino)pyridin-4-yl]-1,5,6,7-tetrahydro-4h-pyrrolo[3,2-c]pyridin-4-one as CSNK1 inhibitors” (Bayer Aktiengesellschaft, priority 2019, dated 2025).

Common to all, as to type: biochemical
In experiment [1] the target is wild-type Epidermal Growth Factor Receptor (EGFR) (Homo sapiens (Human), UniProt P00533). Description: WT-EGFR Kinase Assay (TR-FRET, 2 mM ATP). Background: Time-resolved FRET reads energy transfer from a long-lived donor to a nearby acceptor.
For experiment [2], the target named is human CSNK1D (Homo sapiens (Human), UniProt P48730). Nature of the experiment: CSNK1D Assay (ADP-Glo, 1 μM ATP). Conditions: read-out: CSNK1D IC50 [mol/l] (median). An outline of the steps: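 Activity is read as ADP produced, by ADP-Glo luminescence after 1 h steps at 22 °C. The reaction uses 1 μM ATP, a biotinylated peptide and insect-cell-expressed GST–CSNK1D (about 0.5 ng/μL) in pH 7.5 HEPES buffer, with 15 min compound–enzyme preincubation.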
On the technique in general: ADP-Glo turns the ADP formed in a reaction into a luminescent signal.

The target of experiment [3] is T1, human CSNK1A1 (Homo sapiens (Human), UniProt P48729). Description: CSNK1A1 Assay 2 (ADP-Glo, 1 μM ATP). To be noted: substrate biotin-Ahx-KRRRAL-pS-VASLPGL, read-out: CSNK1A1 Assay 2 IC50 [mol/l] (median). An outline of the steps:
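Full-length human CSNK1A1 as an N-terminal GST fusion (baculovirus/insect cells) with biotinylated peptide substrate biotin-Ahx-KRRRAL-pS-VASLPGL and 1 μM ATP, in HEPES pH 7.5 buffer. Compounds were pre-incubated with enzyme (~0.0375 ng/μL) for 15 min at 22 °C. Generated ADP was read by ADP-Glo luminescence as the activity measure.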

In experiment [4] the target is T1, human CSNK1A1. Description: CSNK1A1 High ATP Assay (ADP-Glo, 1 mM ATP). Conditions: read-out: CSNK1A1 high ATP assay IC50 [mol/l] (median). Put shortly: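 Kinase activity taken as ADP generated, quantified by ADP-Glo luminescence after 1 h ATP depletion and 1 h detection at 22 °C. Enzyme is GST–full-length human CSNK1A1 (insect cell-expressed), pre-bound to compound for 15 min, with phosphopeptide substrate and 1 mM ATP.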

Setting [5] is: EGFR Wildtyp- 2 mM ATP IC50 [mol/l] (median).
[6] abbreviates: read-out: EGFR Wildtyp- 2 mM ATP IC50 [mol/l] (median).

Where “and” joins values, the source holds several entries; their conditions need not be identical. Equal values may be shown once. Where a name gives a salt, the structure may show the parent alone. Read-outs that look alike come from different tables or passages of the source. Where only a bound is given, the exact number is not on record here.

Chain of wild-type Epidermal Growth Factor Receptor (EGFR) (P00533 669-1210): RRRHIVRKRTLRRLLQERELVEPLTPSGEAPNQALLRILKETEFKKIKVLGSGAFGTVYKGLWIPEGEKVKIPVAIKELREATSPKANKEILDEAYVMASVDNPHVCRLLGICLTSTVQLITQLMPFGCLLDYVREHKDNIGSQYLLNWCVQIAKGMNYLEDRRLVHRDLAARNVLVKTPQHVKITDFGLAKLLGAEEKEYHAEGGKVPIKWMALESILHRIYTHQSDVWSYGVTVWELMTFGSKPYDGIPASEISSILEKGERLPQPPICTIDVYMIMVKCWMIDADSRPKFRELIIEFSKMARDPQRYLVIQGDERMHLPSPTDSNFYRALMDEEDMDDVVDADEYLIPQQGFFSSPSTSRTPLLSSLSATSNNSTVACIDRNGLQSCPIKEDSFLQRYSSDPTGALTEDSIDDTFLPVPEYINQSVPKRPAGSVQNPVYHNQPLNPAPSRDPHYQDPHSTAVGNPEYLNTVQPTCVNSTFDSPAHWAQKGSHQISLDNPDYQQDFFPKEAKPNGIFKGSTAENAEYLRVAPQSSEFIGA
Chain of human CSNK1D (P48730 whole entry): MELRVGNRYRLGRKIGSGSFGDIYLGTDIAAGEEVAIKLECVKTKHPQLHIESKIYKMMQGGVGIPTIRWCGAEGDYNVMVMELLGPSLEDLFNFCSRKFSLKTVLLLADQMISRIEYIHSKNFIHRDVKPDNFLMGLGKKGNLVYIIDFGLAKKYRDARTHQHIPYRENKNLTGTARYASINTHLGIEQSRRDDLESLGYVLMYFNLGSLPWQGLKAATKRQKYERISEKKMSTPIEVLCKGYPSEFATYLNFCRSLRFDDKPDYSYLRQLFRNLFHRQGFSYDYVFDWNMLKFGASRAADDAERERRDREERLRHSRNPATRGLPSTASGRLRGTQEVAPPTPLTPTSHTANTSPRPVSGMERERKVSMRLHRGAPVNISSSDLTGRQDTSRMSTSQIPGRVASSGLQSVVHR
T1 sequence (P48729 whole entry, the tested form may be a part): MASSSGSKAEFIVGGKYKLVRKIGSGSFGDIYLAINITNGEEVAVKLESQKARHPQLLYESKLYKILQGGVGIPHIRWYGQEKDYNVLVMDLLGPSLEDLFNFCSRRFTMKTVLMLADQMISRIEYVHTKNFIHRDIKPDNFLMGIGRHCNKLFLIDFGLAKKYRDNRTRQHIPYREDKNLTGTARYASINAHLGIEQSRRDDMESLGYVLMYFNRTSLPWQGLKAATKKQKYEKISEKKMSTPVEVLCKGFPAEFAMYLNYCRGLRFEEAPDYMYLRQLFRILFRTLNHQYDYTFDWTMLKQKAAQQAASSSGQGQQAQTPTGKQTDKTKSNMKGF

For `Cc1ccccc1Nc1c(-c2ccnc(NC(=O)C(C)c3ccc(F)cc3)c2)[nH]c2c1C(=O)NC(C)(C)C2` (racemic) [Example 132, N-{4-[6,6-dimethyl-3-(2-methylanilino)-4-oxo-4,5,6,7-tetrahydro-1H-pyrrolo[3,2-c]pyridin-2-yl]pyridin-2-yl}-2-(4-fluorophenyl)propanamide (Racemate)], the IC50 is over 20 µM in experiment [1] (setting [5]), 0.0329 µM in experiment [2], 0.0243 µM in experiment [3] and 0.915 µM in experiment [4].

In the case of `Cc1ccccc1Nc1c(-c2ccnc(NC(=O)C(CC(F)F)c3ccc(F)cc3)c2)[nH]c2c1C(=O)NC(C)(C)C2` (racemic) [Example 135, N-{4-[6,6-dimethyl-3-(2-methylanilino)-4-oxo-4,5,6,7-tetrahydro-1H-pyrrolo[3,2-c]pyridin-2-yl]pyridin-2-yl}-4,4-difluoro-2-(4-fluorophenyl)butanamide (Racemate)], the IC50 in experiment [1] (setting [5]) was over 20 µM; in experiment [2] it was 0.0199 µM; in experiment [3], 0.0258 µM; in experiment [4] it was 0.365 µM.

For the molecule `CC1(C)Cc2[nH]c(-c3ccnc(NC(=O)C(CNC(=O)OC(C)(C)C)c4ccc(F)cc4)c3)c(Nc3ccccc3)c2C(=O)N1` (racemic) [Example 138, tert-butyl [3-{[4-(3-anilino-6,6-dimethyl-4-oxo-4,5,6,7-tetrahydro-1H-pyrrolo[3,2-c]pyridin-2-yl)pyridin-2-yl]amino}-2-(4-fluorophenyl)-3-oxopropyl]carbamate (Racemate)], the IC50 in experiment [1] (setting [5]) came out at 11.1 µM; in experiment [2], 0.0224 µM; in experiment [3], 0.0166 µM; in experiment [4] it was 0.43 µM.

On to `CC1(C)Cc2[nH]c(-c3ccnc(NC(=O)C(CN)c4ccc(F)cc4)c3)c(Nc3ccccc3)c2C(=O)N1` (racemic) [Example 139, 3-amino-N-[4-(3-anilino-6,6-dimethyl-4-oxo-4,5,6,7-tetrahydro-1H-pyrrolo[3,2-c]pyridin-2-yl)pyridin-2-yl]-2-(4-fluorophenyl)propanamide-hydrogen chloride salt (Racemate)], for which the IC50 was found to be 0.681 µM in experiment [1] (setting [5]), 0.00773 µM in experiment [2], 0.00321 µM in experiment [3] and 0.0414 µM in experiment [4].

For `Cc1ccccc1Nc1c(-c2ccnc(NC(=O)C(CC(F)F)c3ccc(F)cc3)c2)[nH]c2c1C(=O)NC1(CCC1)C2` (racemic) [Example 143, 4,4-difluoro-2-(4-fluorophenyl)-N-{4-[3′-(2-methylanilino)-4′-oxo-1′,4′,5′,7′-tetrahydrospiro[cyclobutane-1,6′-pyrrolo[3,2-c]pyridin]-2′-yl]pyridin-2-yl}butanamide (Racemate)], the IC50 was over 20 µM in experiment [1] (setting [5]), 0.0184 µM in experiment [2], 0.0167 µM in experiment [3] and 0.032 µM in experiment [4].

As to `O=C1NC2(CC2)Cc2[nH]c(-c3ccnc(NC(=O)C(CC(F)F)c4ccc(F)cc4)c3)c(Nc3ccccc3)c21` (racemic) [Example 147, N-[4-(3′-anilino-4′-oxo-1′,4′,5′,7′-tetrahydrospiro[cyclopropane-1,6′-pyrrolo[3,2-c]pyridin]-2′-yl)pyridin-2-yl]-4,4-difluoro-2-(4-fluorophenyl)butanamide (Racemate)], the IC50 in experiment [1] (setting [5]) came to 0.268 µM; in experiment [2], 0.0116 µM; in experiment [3], 0.0062 µM; in experiment [4] it was 0.0192 µM.

As for `CC(C(=O)Nc1cc(-c2[nH]c3c(c2Nc2ccccc2)C(=O)N(C)C2(CCC2)C3)ccn1)c1ccc(F)cc1` (racemic) [Example 157, N-[4-(3′-anilino-5′-methyl-4′-oxo-1′,4′,5′,7′-tetrahydrospiro[cyclobutane-1,6′-pyrrolo[3,2-c]pyridin]-2′-yl)pyridin-2-yl]-2-(4-fluorophenyl)propanamide (Racemate)], the IC50 in experiment [1] (setting [5]) was over 20 µM; in experiment [2] it was 0.0158 µM; in experiment [3], 0.00876 µM; in experiment [4] it was 0.0508 µM.

Regarding `CN1C(=O)c2c([nH]c(-c3ccnc(NC(=O)C(CC(F)F)c4ccc(F)cc4)c3)c2Nc2ccccc2)CC12CCC2` (racemic) [Example 160, N-[4-(3′-anilino-5′-methyl-4′-oxo-1′,4′,5′,7′-tetrahydrospiro[cyclobutane-1,6′-pyrrolo[3,2-c]pyridin]-2′-yl)pyridin-2-yl]-4,4-difluoro-2-(4-fluorophenyl)butanamide (Racemate)], the IC50 in experiment [1] (setting [5]) is over 20 µM; in experiment [2], 0.0158 µM; in experiment [3] it was 0.0133 µM; in experiment [4] it was 0.0272 µM.

For the molecule `CC(C(=O)Nc1cc(-c2[nH]c3c(c2Nc2ccccc2)C(=O)NCC3)ccn1)c1ccc(F)cc1` (single isomer, unassigned) [Example 10, N-[4-(3-anilino-4-oxo-4,5,6,7-tetrahydro-1H-pyrrolo[3,2-c]pyridin-2-yl)pyridin-2-yl]-2-(4-fluorophenyl)propanamide], the IC50 is 12.4 µM in experiment [1] (setting [5]), 0.014 µM in experiment [2], 0.00461 µM in experiment [3] and 0.0255 µM in experiment [4].

With `CC(C(=O)Nc1cc(-c2[nH]c3c(c2Nc2ccccc2)C(=O)NCC3)ccn1)c1ccc(F)cc1` (single isomer, unassigned) [Example 11, N-[4-(3-anilino-4-oxo-4,5,6,7-tetrahydro-1H-pyrrolo[3,2-c]pyridin-2-yl)pyridin-2-yl]-2-(4-fluorophenyl)propanamide], the IC50 in experiment [1] (setting [5]) is 2.29 µM; in experiment [2] it was 0.0308 µM; in experiment [3], 0.0304 µM; in experiment [4] it was 3.97 µM.

Turning to `CC(C(=O)Nc1cc(-c2[nH]c3c(c2Nc2ccccc2Cl)C(=O)NCC3)ccn1)c1ccc(F)cc1` (single isomer, unassigned) [Example 15, N-{4-[3-(2-chloroanilino)-4-oxo-4,5,6,7-tetrahydro-1H-pyrrolo[3,2-c]pyridin-2-yl]pyridin-2-yl}-2-(4-fluorophenyl)propanamide], the IC50 in experiment [1] (setting [5]) is over 20 µM; in experiment [2], 0.0386 µM; in experiment [3], 0.0425 µM; in experiment [4] it was 10.7 µM and > 5.71 µM.

Turning to `CC(C(=O)Nc1cc(-c2[nH]c3c(c2Nc2ccccc2Cl)C(=O)NCC3)ccn1)c1ccc(F)cc1` (single isomer, unassigned) [Example 16, N-{4-[3-(2-chloroanilino)-4-oxo-4,5,6,7-tetrahydro-1H-pyrrolo[3,2-c]pyridin-2-yl]pyridin-2-yl}-2-(4-fluorophenyl)propanamide], the IC50 was over 20 µM in experiment [1] (setting [6]), 0.008 µM in experiment [2], 0.00257 µM in experiment [3] and 0.102 µM in experiment [4].

Consider `CN1CCc2[nH]c(-c3ccnc(NC(=O)C(CO)c4ccc(F)cc4)c3)c(Nc3ccccc3)c2C1=O` (single isomer, unassigned) [Example 18, N-[4-(3-anilino-5-methyl-4-oxo-4,5,6,7-tetrahydro-1H-pyrrolo[3,2-c]pyridin-2-yl)pyridin-2-yl]-2-(4-fluorophenyl)-3-hydroxypropanamide], for which the IC50 in experiment [1] (setting [5]) came to 14.9 µM; in experiment [2], 0.0447 µM; in experiment [3], 0.0204 µM; in experiment [4], 1.79 µM.

With `CN1CCc2[nH]c(-c3ccnc(NC(=O)C(CO)c4ccc(F)cc4)c3)c(Nc3ccccc3)c2C1=O` (single isomer, unassigned) [Example 19, N-[4-(3-anilino-5-methyl-4-oxo-4,5,6,7-tetrahydro-1H-pyrrolo[3,2-c]pyridin-2-yl)pyridin-2-yl]-2-(4-fluorophenyl)-3-hydroxypropanamide], the IC50 is > 20 µM (5×) and 16.1 µM in experiment [1] (setting [5]); 0.00655 µM in experiment [2]; 0.0017 µM in experiment [3]; 0.0106 µM in experiment [4].

With `CCN1CCc2[nH]c(-c3ccnc(NC(=O)C(C)c4ccc(F)cc4)c3)c(Nc3ccccc3)c2C1=O` (single isomer, unassigned) [Example 25, N-[4-(3-anilino-5-ethyl-4-oxo-4,5,6,7-tetrahydro-1H-pyrrolo[3,2-c]pyridin-2-yl)pyridin-2-yl]-2-(4-fluorophenyl)propanamide], the IC50 in experiment [1] (setting [5]) is over 20 µM; in experiment [2], 0.0886 µM; in experiment [3] it was 0.0554 µM; in experiment [4] it was 12.7 µM and > 20 µM.

Turning to `CCN1CCc2[nH]c(-c3ccnc(NC(=O)C(C)c4ccc(F)cc4)c3)c(Nc3ccccc3)c2C1=O` (single isomer, unassigned) [Example 26, N-[4-(3-anilino-5-ethyl-4-oxo-4,5,6,7-tetrahydro-1H-pyrrolo[3,2-c]pyridin-2-yl)pyridin-2-yl]-2-(4-fluorophenyl)propanamide], the IC50 in experiment [1] (setting [6]) is over 20 µM; in experiment [2], 0.0231 µM; in experiment [3], 0.00405 µM; in experiment [4] it was 0.288 µM.

As to `CC(C(=O)Nc1cc(-c2[nH]c3c(c2Nc2ccccc2)C(=O)NC(C)(C)C3)ccn1)c1ccc(F)cc1` (single isomer, unassigned) [Example 39, N-[4-(3-anilino-6,6-dimethyl-4-oxo-4,5,6,7-tetrahydro-1H-pyrrolo[3,2-c]pyridin-2-yl)pyridin-2-yl]-2-(4-fluorophenyl)propanamide], the IC50 in experiment [1] (setting [5]) was over 20 µM; in experiment [2], 0.214 µM; in experiment [3] it was 0.179 µM; in experiment [4] it was 2.84 µM and 2.9 µM and > 20 µM (2×).
